This note sets out measurements from PubChem BioAssay (NCI).

Test systems include HOP-62 NSCLC; NCI-H522 lung; SW-620 colon; MOLT-4 leukemia; EKVX NSCLC; KM20L2 colon; MDA-MB-435; DMS 114 small cell lung; NCI-H23 lung; SR leukemia.
Holding throughout (test): NCI-60 cell line screen, 48 h

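The compound was tested at five concentrations on cells cultured in 96-well plates, with a 48-hour exposure period. TGI is the concentration that stops growth completely.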 Bounds are passed on as bounds.

Take `COc1ccc(NC(=O)CC(=O)n2nc(-c3ccccc3)c(N=Nc3ccccc3C)c2-c2ccccc2)cc1`: the TGI in the test on HOP-62 NSCLC was 33.8 µM; with NCI-H522 lung it was 47.8 µM; with SW-620 colon, more than 62.3 µM; in the test with MOLT-4 leukemia it was more than 100 µM; in the test with EKVX NSCLC it was 45.2 µM; in the test on KM20L2 colon it was more than 100 µM. The TGI in the test on MDA-MB-435 is more than 100 µM; with DMS 114 small cell lung, 49.7 µM; in the test with NCI-H23 lung, 51.1 µM; in the test on SR leukemia, more than 100 µM.
